Values joined by “and” are separate entries in the source; they are usually repeats but may differ in a detail not shown here. Equal values may be shown once. Toxic doses and inconclusive results are not listed.

The experiment has as its system BDF1 mice, P388 leukemia ip, median survival T/C. The experiment can be described thus: NCI In Vivo Anticancer Drug Screen. Data for tumor model P388 Leukemia (intraperitoneal) in B6D2F1 (BDF1) mice. Conditions: endpoint: median survival time, higher = longer survival. The essentials:
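Read-out is survival of treated animals expressed relative to the vehicle group, as a T/C ratio.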

Where [1] appears, read: dose: 100.0 mg/kg/injection, schedule: Q01DX009 (ip), vehicle: saline with Tween-80.
[2] abbreviates: dose: 200.0 mg/kg/injection, schedule: Q01DX009 (ip), vehicle: saline with Tween-80.
[3] abbreviates: dose: 12.5 mg/kg/injection, schedule: Q01DX009 (ip), vehicle: saline with Tween-80.
The mark [4] stands for this setting: dose: 25.0 mg/kg/injection, schedule: Q01DX009 (ip), vehicle: saline with Tween-80.
Where [5] appears, read: dose: 100.0 mg/kg/injection, schedule: Q04DX003 (ip), vehicle: saline with Tween-80.
[6] abbreviates: dose: 200.0 mg/kg/injection, schedule: Q04DX003 (ip), vehicle: saline with Tween-80.
Setting [7] is: dose: 400.0 mg/kg/injection, schedule: Q04DX003 (ip), vehicle: saline with Tween-80.
Where [8] appears, read: dose: 50.0 mg/kg/injection, schedule: Q01DX009 (ip), vehicle: saline with Tween-80.

Regarding `Clc1ncc(Br)c(Cl)n1`, the T/C by setting is: (dose: 2.7 mg/kg/injection, schedule: Q01DX009 (ip), vehicle: Klucel (hydroxypropylcellulose) (HPC)) 95 % of control; (dose: 4.1 mg/kg/injection, schedule: Q01DX009 (ip), vehicle: Klucel (hydroxypropylcellulose) (HPC)) 95 % of control; (dose: 8.2 mg/kg/injection, schedule: Q01DX009 (ip), vehicle: Klucel (hydroxypropylcellulose) (HPC)) 109 % of control; (dose: 8.3 mg/kg/injection, schedule: Q01DX009 (ip), vehicle: Klucel (hydroxypropylcellulose) (HPC)) 100 % of control; (dose: 12.5 mg/kg/injection, schedule: Q01DX009 (ip), vehicle: Klucel (hydroxypropylcellulose) (HPC)) 100 % of control and 109 % of control; (dose: 13.75 mg/kg/injection, schedule: Q04DX003 (ip), vehicle: Klucel (hydroxypropylcellulose) (HPC)) 104 % of control. Further, the T/C (dose: 18.0 mg/kg/injection, schedule: Q01DX009 (ip), vehicle: Klucel (hydroxypropylcellulose) (HPC)) was 100 % of control; the T/C (dose: 18.75 mg/kg/injection, schedule: Q01DX009 (ip), vehicle: Klucel (hydroxypropylcellulose) (HPC)) was 115 % of control; the T/C (dose: 27.5 mg/kg/injection, schedule: Q04DX003 (ip), vehicle: Klucel (hydroxypropylcellulose) (HPC)) is 100 % of control; the T/C (dose: 55.0 mg/kg/injection, schedule: Q04DX003 (ip), vehicle: Klucel (hydroxypropylcellulose) (HPC)) was 108 % of control; the T/C (dose: 80.0 mg/kg/injection, schedule: Q04DX003 (ip), vehicle: Klucel (hydroxypropylcellulose) (HPC)) is 108 % of control; the T/C (dose: 125.0 mg/kg/injection, schedule: Q04DX003 (ip), vehicle: Klucel (hydroxypropylcellulose) (HPC)) is 100 % of control.

With `O=C(O)C1CCCC2C(O)CCC(=O)C12` (stereo not drawn), the T/C by setting is: under setting [1], 100 % of control; under setting [2], 109 % of control.

On to `CCOc1cc(C=Nc2cccc(C(F)(F)F)c2)ccc1O`, for which the T/C is 95 % of control (dose: 100.0 mg/kg/injection, schedule: Q04DX003 (ip), vehicle: other) and 95 % of control (dose: 400.0 mg/kg/injection, schedule: Q04DX003 (ip), vehicle: other).

As to `CCC1=C2C(=O)c3ccccc3C2=C(C)S(=O)(=O)O1`, the T/C runs as follows: (dose: 6.25 mg/kg/injection, schedule: Q01DX009 (ip), vehicle: saline with Tween-80) 113 % of control and 118 % of control; under setting [3], 118 % of control; under setting [4], 122 % of control.

Turning to `BrCC12CCC1(CBr)COC2` (stereo not drawn), the T/C was 107 % of control (dose: 100.0 mg/kg/injection, schedule: Q01DX001 (ip), vehicle: Klucel (hydroxypropylcellulose) (HPC)); 92 % of control (dose: 200.0 mg/kg/injection, schedule: Q01DX001 (ip), vehicle: Klucel (hydroxypropylcellulose) (HPC)); 100 % of control (dose: 400.0 mg/kg/injection, schedule: Q01DX001 (ip), vehicle: Klucel (hydroxypropylcellulose) (HPC)).

Turning to `CC(=O)c1c(C)oc(C)c1C(C)=O`, the T/C is 103 % of control under setting [5], 111 % of control under setting [6] and 96 % of control under setting [7].

For `COc1cc2cc(c1Cl)NC(=O)/C=C/[C@]1(C)O[C@H]1[C@H](C)[C@@H]1C[C@@](O)(NC(=O)O1)[C@H](OC)C=C/C=C(\C)C2`, the T/C (dose: 0.2 micrograms/kg/injection, schedule: Q01DX009 (ip), vehicle: saline + alcohol) was 100 % of control; the T/C (dose: 0.4 micrograms/kg/injection, schedule: Q01DX009 (ip), vehicle: saline + alcohol) is 100 % of control; the T/C (dose: 0.8 micrograms/kg/injection, schedule: Q01DX009 (ip), vehicle: saline + alcohol) is 90 % of control; the T/C (dose: 1.6 micrograms/kg/injection, schedule: Q01DX009 (ip), vehicle: saline + alcohol) was 100 % of control; the T/C (dose: 3.1 micrograms/kg/injection, schedule: Q01DX009 (ip), vehicle: saline + alcohol) was 115 % of control; the T/C (dose: 6.2 micrograms/kg/injection, schedule: Q01DX009 (ip), vehicle: saline + alcohol) is 115 % of control. In addition, the T/C is, setting by setting: (dose: 12.5 micrograms/kg/injection, schedule: Q01DX009 (ip), vehicle: saline + alcohol) 87 % of control and 110 % of control; (dose: 25.0 micrograms/kg/injection, schedule: Q01DX009 (ip), vehicle: saline + alcohol) 87 % of control and 110 % of control; (dose: 50.0 micrograms/kg/injection, schedule: Q01DX009 (ip), vehicle: saline + alcohol) 91 % of control and 110 % of control; (dose: 100.0 micrograms/kg/injection, schedule: Q01DX009 (ip), vehicle: saline + alcohol) 91 % of control and 95 % of control.

In the case of `C[C@]12CCC(=O)C=C1CC[C@@H]1[C@@H]2[C@@H](O)C[C@@]2(C)[C@H]1CC[C@]2(C)O`, the T/C under setting [1] is 86 % of control.

`CCCCCCCCOc1cc2c(c(OC(C)=O)c1)-c1ccccc1CC2`: the T/C under setting [5] was 97 % of control, the T/C under setting [6] was 99 % of control and the T/C under setting [7] is 99 % of control.

For `Cc1ccc(S(=O)(=O)c2ccc(Sc3cccc[n+]3[O-])c3nonc23)cc1`, the T/C is 119 % of control under setting [4] and 111 % of control under setting [1].

As for `CC1(C)C/C(=C\c2ccc(Cl)cc2)C(=O)c2ccccc21`, the T/C by setting is: (dose: 100.0 mg/kg/injection, schedule: Q04DX003 (ip), vehicle: Klucel (hydroxypropylcellulose) (HPC)) 100 % of control; (dose: 200.0 mg/kg/injection, schedule: Q04DX003 (ip), vehicle: Klucel (hydroxypropylcellulose) (HPC)) 100 % of control; (dose: 400.0 mg/kg/injection, schedule: Q04DX003 (ip), vehicle: Klucel (hydroxypropylcellulose) (HPC)) 91 % of control.

Regarding `CCC[CH2][Sn]1([CH2]CCC)[S]CC[N]1S(=O)(=O)c1ccc(C)cc1`, the T/C (dose: 3.0 mg/kg/injection, schedule: Q01DX009 (ip), vehicle: gum acacia) was 119 % of control.

Turning to `C[C@]12CC[C@H]3[C@@H](CC[C@]4(O)C[C@@H](O)CC[C@]34C=O)[C@@]1(O)CC[C@@H]2c1ccc(=O)oc1`, the T/C by setting is: (dose: 13.7 mg/kg/injection, schedule: Q01DX010 (ip), vehicle: carboxymethylcellulose (CMC)) 95 % of control; (dose: 27.5 mg/kg/injection, schedule: Q01DX010 (ip), vehicle: carboxymethylcellulose (CMC)) 100 % of control.

For `c1ccc2c(c1)-c1cccc3cccc-2c13`, the T/C under setting [8] was 98 % of control, the T/C under setting [1] was 102 % of control and the T/C under setting [2] was 100 % of control.

As for `Cc1ccc([I+]c2ccc(C)cc2C)c(C)c1`, the T/C reads like this: (dose: 0.19 mg/kg/injection, schedule: Q01DX009 (ip), vehicle: Klucel (hydroxypropylcellulose) (HPC)) 90 % of control; (dose: 0.39 mg/kg/injection, schedule: Q01DX009 (ip), vehicle: Klucel (hydroxypropylcellulose) (HPC)) 90 % of control; (dose: 0.78 mg/kg/injection, schedule: Q01DX009 (ip), vehicle: Klucel (hydroxypropylcellulose) (HPC)) 100 % of control; (dose: 1.17 mg/kg/injection, schedule: Q04DX003 (ip), vehicle: Klucel (hydroxypropylcellulose) (HPC)) 104 % of control; (dose: 1.5 mg/kg/injection, schedule: Q01DX009 (ip), vehicle: Klucel (hydroxypropylcellulose) (HPC)) 90 % of control; (dose: 1.56 mg/kg/injection, schedule: Q01DX009 (ip), vehicle: Klucel (hydroxypropylcellulose) (HPC)) 87 % of control. Further, the T/C was 108 % of control (dose: 2.34 mg/kg/injection, schedule: Q04DX003 (ip), vehicle: Klucel (hydroxypropylcellulose) (HPC)); 100 % of control and 103 % of control (dose: 3.0 mg/kg/injection, schedule: Q01DX009 (ip), vehicle: Klucel (hydroxypropylcellulose) (HPC)); 113 % of control (dose: 4.68 mg/kg/injection, schedule: Q04DX003 (ip), vehicle: Klucel (hydroxypropylcellulose) (HPC)); 103 % of control (dose: 6.0 mg/kg/injection, schedule: Q01DX009 (ip), vehicle: Klucel (hydroxypropylcellulose) (HPC)); 100 % of control (dose: 6.6 mg/kg/injection, schedule: Q04DX003 (ip), vehicle: Klucel (hydroxypropylcellulose) (HPC)); 113 % of control (dose: 10.0 mg/kg/injection, schedule: Q04DX003 (ip), vehicle: Klucel (hydroxypropylcellulose) (HPC)). Also, the T/C was 100 % of control (dose: 12.0 mg/kg/injection, schedule: Q04DX003 (ip), vehicle: Klucel (hydroxypropylcellulose) (HPC)); 103 % of control (dose: 12.5 mg/kg/injection, schedule: Q04DX003 (ip), vehicle: Klucel (hydroxypropylcellulose) (HPC)); 100 % of control (dose: 25.0 mg/kg/injection, schedule: Q04DX003 (ip), vehicle: Klucel (hydroxypropylcellulose) (HPC)); 91 % of control (dose: 50.0 mg/kg/injection, schedule: Q04DX003 (ip), vehicle: Klucel (hydroxypropylcellulose) (HPC)).

Take `O=C1NC(=O)C2C3C=CC(C12)C1C2C(=O)NC(=O)C2C31` (stereo not drawn): the T/C under setting [3] is 108 % of control and the T/C under setting [8] is 168 % of control.

The values above are taken from PubChem BioAssay AID328 (DTP/NCI, 2004).
